In article PMC12590632, “Identification and characterization of a nonpeptidic cyclophilin ligand with antiviral activity against feline and porcine α-coronaviruses” (Veterinary Research, 2025):

Key:
CRFK cells = assay: Cytotoxicity assay (CellTiter-Glo); assay type: cell-based, feline; details: 24 h, up to 25 µM
Method: The cells were plated in a 96-well plate at a density of 2 × 10^4 cells/well and incubated for 24 h. The culture medium was replaced with serial dilutions of culture medium containing three replicates of different concentrations (ranging from 0.9 μM to 25 μM) of F83233, F832 and F833 molecules, DMSO or media alone as controls. The plates were incubated for 24 h at 37 °C. Cytotoxicity was evaluated with the CellTiter-Glo Cell Viability Assay Kit (Promega, Madison, USA).

Human cyclophilin A = biological target: T1, Human cyclophilin A (Homo sapiens, UniProt P62937); assay: PPIase enzyme assay (chymotrypsin-coupled); assay type: biochemical; details: 20 °C, mean ± SD of two or more experiments
T1 construct: made in house
T1 sequence (P62937 whole entry): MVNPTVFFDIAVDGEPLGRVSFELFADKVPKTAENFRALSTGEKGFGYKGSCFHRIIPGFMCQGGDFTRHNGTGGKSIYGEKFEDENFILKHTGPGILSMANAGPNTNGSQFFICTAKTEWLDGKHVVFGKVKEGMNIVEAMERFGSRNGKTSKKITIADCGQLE
Method: Human cyclophilin A was purified, and its PPIase activity in the absence or presence of SMCypI was measured as previously described. Briefly, cyclophilin A PPIase activity was measured at 20 °C using the standard chymotrypsin-coupled assay. The assay buffer (25 mM HEPES and 100 mM NaCl, pH 7.8) and purified cyclophilin A were precooled to 4 °C. Then, 5 µL of 50 mg/mL chymotrypsin in 1 mM HCl was added (final reaction volume of 500 µL). The reaction was initiated by adding the peptide substrate Suc-Ala-Ala-Cis-Pro-Phe-pNA to a LiCl/TFE solution with rapid inversion. The absorbance of p-nitroaniline was monitored at 390 nm until the reaction was complete, i.e., when the absorbance reached a plateau (1 min). The final concentration of LiCl in the assay was 20 mM, and TFE was present at a concentration of 4% (v/v). The absorbance was measured every second using a spectrophotometer (BioMate3, Thermo Fischer Scientific). For the inhibition assessment, 5 µL of the tested compound in dimethyl sulfoxide (DMSO) was added to the cyclophilin A solution in the assay buffer. CsA (Sigma‒Aldrich, Saint-Louis, USA) was used as a positive control for PPIase inhibition in all measurements. IC50 values were calculated from dose‒response curves and reported as the mean ± standard deviation of two or more experiments.

[1] = tested on: TGEV (Purdue strain) in PK15 cells; assay: TGEV infection in PK15 cells, immunofluorescence, infected area; assay type: cell-based, transmissible gastroenteritis virus; details: for Effect on TGEV infection: 12.5 µM
Method: (§1) CRFK, PK15 and Vero cells were plated in a 96-well plate at a density of 2 × 10^4 cells/well and incubated for 18 h at 37 °C. The cells were infected with FIPV (MOI of 1), TGEV (MOI of 0.5) or PEDV (MOI of 0.5). Viral inoculation was performed in the presence of F83233, F832 and F833 at concentrations ranging from 0.1 μM to 25 μM for FIPV assays and from 0.78 µM to 12.5 µM for TGEV and PEDV. Two hours after viral inoculation, fresh medium supplemented with the same concentrations of inhibitors was added. The antiviral effect was measured at the peak of viral replication, i.e., after 24 h for FIPV and PEDV infection and after 48 h for TGEV infection. The experiments were repeated twice, and each condition was tested in duplicate or triplicate in independent wells.
(§2) Fixed PK15 and Vero cells were processed similarly. TGEV infection was detected with a homemade anti-spike antibody (called 51.13 [46, 47], dilution 1/10 000) from a mouse and with an anti-mouse AlexaFluor-555-conjugated secondary antibody. PEDV infection was detected with polyclonal antibodies from pigs (a gift from Drs. Y. Blanchard and M. Contrant, Anses, Ploufragan, dilution 1/300) and with an anti-pig AlexaFluor-488-conjugated secondary antibody (SouthernBiotech, Birmingham, USA). […] (J2 from Cell Signaling Technology, Danvers, USA, dilution 1/1000), followed by incubation with an anti-mouse AlexaFluor-555-conjugated secondary antibody. The cells were counterstained with DAPI (Sigma‒Aldrich, final concentration of 1 µg/mL). Secondary antibodies (with the exception of the anti-pig at a 1/400 dilution) were used at a 1/800 dilution and were obtained from Molecular Probes (Thermo Fischer Scientific).
(§3) For each concentration of F832, F833 or F83233, 3 to 5 pictures were randomly taken with an epifluorescence microscope (Zeiss, Oberkochen, Germany) with a 10X objective. The area of staining was measured with ImageJ. The number of nuclei/syncytia (defined as PEDV-positive cells with > 4 nuclei) in PEDV-infected cells was manually counted using ImageJ. Blind analysis was performed to avoid bias.

[2] = tested on: PEDV (CV777 strain) in Vero cells; assay: PEDV infection in Vero cells, immunofluorescence, infected area; assay type: cell-based, porcine epidemic diarrhoea virus; details: for Antiviral potency against PEDV: MOI 0.5, 24 h, 0.78-12.5 µM
Method: as §1, §2, §3

[3] = tested on: FIPV (strain 79-1146) in CRFK cells; assay: FIPV viral titre in cell supernatants, dose response in CRFK cells; assay type: cell-based, feline infectious peritonitis virus; details: for Decrease of FIPV virus titre: 25 µM
Method: (§4) CRFK cells were plated in a 96-well plate at a density of 2 × 10^4 cells/well and incubated for 24 h. Serial tenfold dilutions (10^–1 to 10^–6) of viral supernatants, obtained with or without cyclophilin inhibitors, were added to CRFK cells in eight replicate wells per dilution. The viral inoculum was removed 2 h after infection, and the cells were incubated for 24 h at 37 °C. The cells were fixed via sequential incubation in absolute ethanol followed by 70% ethanol (10 min each at room temperature). FIPV antigens were then detected by immunofluorescence using ascitic fluid from an infected cat (dilution 1/500), followed by incubation with an anti-cat AlexaFluor-488-conjugated secondary antibody (Jackson ImmunoResearch, West Grove, USA). Wells containing fluorescent cells were counted. The 50% infectious dose (ID50) was calculated using the Spearman–Karber method. The results are presented as the means of ≥ 2 experiments performed in triplicate.
as §1

[4] = tested on: FIPV (strain 79-1146) in CRFK cells; assay: SMCypI screening for FIPV infection, viral titre by end-point dilution; assay type: cell-based, feline infectious peritonitis virus; details: 50 µM SMCypI, MOI 1, 24 h
Method: CRFK cells were plated in a 96-well plate at a density of 2 × 10^4 cells/well and incubated for 24 h. The cells were infected for 1 h with FIPV at a multiplicity of infection (MOI) of 1 in the presence of 50 µM or 10 µM SMCypI or CsA, respectively. The inoculum was removed after 1 h, and inhibitors (50 μM SMCypI or 10 μM CsA) were added for 24 supplemental hours. The supernatants were collected and stored at −80 °C prior to the end-point dilution assays.
as §4, with “The results are presented as the means of ≥ 2 experiments performed in triplicate.” left out

FIPV in CRFK cells = assay: Time-of-drug addition assay; assay type: cell-based, feline infectious peritonitis virus
Method: as §4
CRFK cells were plated in a 96-well plate at a density of 2 × 10^4 cells per well and incubated for 24 h. The cells were infected with FIPV at an MOI of 1 in the presence of 5 µM F83233 (for 0 h post-infection (pi)) or in the presence of DMSO (for the other time points). After viral inoculation, the culture medium was removed, fresh medium containing 5 μM F83233 was added at 1, 3, 6, 9 or 18 h post-infection, and infection was stopped at 24 h post-inoculation. The cell supernatants were stored at −80 °C prior to end-point dilution to measure the effect of F83233 on FIPV infectivity under different conditions. The experiment was repeated three times, and each condition was tested in triplicate.

[5] = tested on: PEDV (CV777 strain) in Vero cells; assay: PEDV-induced syncytium formation and dsRNA staining in Vero cells; assay type: cell-based, porcine epidemic diarrhoea virus; details: 12.5 µM
Text: as §2, §3

[6] = 5 µM F83233, FIPV MOI 1, CRFK cells

Row | SMILES | Cytotoxicity (CRFK cells) | IC50 (Human cyclophilin A) | Effect on TGEV infection ([1]; MOI 0.5, 48 h) | Antiviral potency against PEDV [2] | Decrease of FIPV virus titre ([3]; 24 h) | Inhibition of FIPV titre [4] | Decrease of antiviral efficiency between addition at 1 and 3 h post-infection (FIPV in CRFK cells; [6]) | Time of addition giving the maximal antiviral effect (FIPV in CRFK cells; [6]) | Inhibition of FIPV titre compared with DMSO control (FIPV in CRFK cells; 5 µM F83233 added 18 h post-infection) | Effect on TGEV-infected cells ([1]; 6.25 µM and 12.5 µM, 48 h) | Concentration at which active against TGEV ([1]; MOI 0.5, 48 h) | Double-strand RNA staining (viral genome replication) in syncytia [5] | Size of PEDV-induced syncytia and number of nuclei per syncytium [5] | Effect on PEDV infection ([2]; 3.125 µM, 24 h) | Reduction in FIPV viral titre ([3]; 5 µM, 24 h) | FIPV viral reduction ([3]; 10 µM) | Maximal inhibitory effect, decrease of FIPV titre ([3]; 12.5 µM, 24 h)
1 | Nc1ccc(CNC(=O)NC(C(=O)N2CCCC2c2cccc3ccsc23)C2CCCCC2)cc1 (stereo not shown) [Compound F833] | low cytotoxicity | 600 ± 100 nM | no significant effect | modest antiviral potency | ≈ 0.5 Log10 |  |  |  |  |  |  |  |  |  |  |  | 
2 | O=C(NCc1ccc2c(c1)CCCN2)NC(C(=O)N1CCCC1c1cccc2ccsc12)C1CCCCC1 (stereo not shown) [Compound F83233] | low cytotoxicity | 700 ± 500 nM |  |  | ≈ 3 Log10 | more than 4 Log10 | more than 1 Log10 | simultaneously with the virus or 1 h later | ≈ 1 Log10 | almost complete disappearance of infected cells | 1.6 µM | markedly impacted | drastically decreased | important reduction in infection | approximately 2 Log10 | approximately 3 Log10 | 3–4 Log10
3 | O=C(NCc1ccc2c(c1)CCCN2)NC(C(=O)N1CCCC1c1cccc2ccsc12)c1ccccc1 (stereo not shown) [Compound F832] | low cytotoxicity | 400 ± 90 nM | no significant effect | modest antiviral potency | ≈ 0.5 Log10 |  |  |  |  |  |  |  |  |  |  |  | 
